Key:
[1] = tested on: giant foxtail (SETFA); assay: Test 3 field trial, emerged weeds before corn planting; format: in vivo, Setaria faberi; settings: 68 DAA; Cpd 2 100, glyphosate 1540, paraquat 1150 g a.i./ha, alone or combined
Text: Corn seeds (hybrid ‘Pioneer 33J56’) were planted in early spring season, 3.8 cm deep in a silt loam soil having 2.4% organic matter and a pH of 6. Plots were 6.1 m long by 2.7 m wide with rows spaced 91.4 cm apart. The field was managed using no-till practices. […] Compound 2 and paraquat treatments, alone and in combination, also included a surfactant. Glyphosate, alone and with Compound 2, included ammonium sulfate in the treatment mixture. […] The effects on the weeds in the treated plots and untreated control plots were recorded 30, 42, 46 and 68 days after application. Most of the weed species could not be evaluated at every timing. Corn response was not evaluated because the growth was highly variable depending on the efficacy of the weed control treatments. […] Results are the means of the three replicates.

[2] = tested on: sicklepod (CASOB); assay: Test 12 field trial, preemergence; format: in vivo, Cassia obtusifolia; set-up: scale not given here; settings: Cpd 2 or Cpd 1 62 g a.i./ha, Diuron 2000 g a.i./ha
Text: In early-mid spring season, corn seeds (hybrid ‘Pioneer 3041’) were planted 5 cm deep and sugarcane nodes (variety RB-72.454) were planted 10 cm deep in separate plots in a clay soil having 2.6% organic matter and a pH of 5.6. Plots were 24 m long by 1.5 m wide with rows spaced 80 cm (corn) or 140 cm (sugarcane) apart. Corn seeds were spaced 15 cm apart and sugarcane nodes were spaced 10 cm apart within the rows. At the same time, weed seeds were broadcast over the surface of separate plots without a crop, one weed species per plot. The weed plots were rotary tilled to incorporate the weed seeds to a variety of depths. The field was managed using conventional tillage practices.

[3] = tested on: ladysthumb smartweed (POLPE); assay: Test 14 field trial, preemergence, growth as percent of control; format: in vivo, Polygonum persicaria
Text: (§1) Corn seeds (hybrid ‘Pioneer 31G96 RR’) were planted in mid spring season, 3.8 cm deep in a clay loam soil having 2% organic matter and a pH of 6.6. Plots were 6.1 m long by 3.0 m wide with rows spaced 76 cm apart. Seeds were spaced 15 cm apart within the rows. The field was managed using conventional tillage practices. […] Yellow nutsedge was only evaluated 19 and 28 days after application, and ivyleaf morningglory could only be evaluated 28 days after application. […] Results are the means of the three replicates. This growth inhibition data was converted to results in the form of “plant growth as a percent of control plant growth” using the calculation “100 minus growth inhibition”. […] For “growth as a percent of control” data, Colby's Equation calculates the expected additive effect of herbicidal mixtures having two active ingredients as follows:
(§2) Ga+b=GaGb/100 • wherein Ga+b is the growth as a percent of control of plants treated with the mixture expected from additive contribution of the individual components, • Ga is the observed growth as a percent of control of plants treated with the first active ingredient at the same use rate as in the mixture, and • Gb is the observed growth as a percent of control of plants treated with the second active ingredient at the same use rate as in the mixture. For mixtures having three active ingredients, Colby's Equation to calculate the expected additive effect of herbicidal mixtures is as follows:
(§3) Ga+b+c=GaGbGc/10,000 • wherein Ga and Gb are as defined above and • Ga+b+c is the growth as a percent of control of plants treated with the mixture expected from additive contribution of the individual components, and • Gc is the observed growth as a percent of control of plants treated with the third active ingredient at the same use rate as in the mixture. When these two forms of Colby's Equation are used, if the observed effects on weeds are less than the expected values, the mixture is synergistic.

[4] = tested on: giant ragweed (AMBTR); assay: as above; format: in vivo, Ambrosia trifida
Text: as §1, §2, §3

[5] = tested on: common chickweed (STEME); assay: Test 23 growth chamber, postemergence; format: in vivo, Stellaria media; settings: 21 DAA
Experimental: (§4) A test was conducted to evaluate the effects on winter barley (HORVW, Hordeum vulgare L.), winter wheat (TRZAW, Triticum aestivum L.), and several weed species of mixtures of Compound 2 with the commercial herbicides (2,4-dichlorophenoxy)acetic acid (2,4-D) and (4-chloro-2-methylphenoxy)acetic acid (MCPA), auxin mimics. […] Plants were treated postemergence at the 2-4 leaf growth stage, and each treatment was replicated three times. […] Plants were watered as needed. […] Results are means of the three replicates.

[6] = tested on: winter wheat (TRZAW); assay: Test 19 growth chamber, postemergence; format: in vivo, Triticum aestivum
Experimental: A test was conducted to evaluate the effects on winter barley (HORVW, Hordeum vulgare L.) and winter wheat (TRZAW, Triticum aestivum L.) of mixtures of Compound 2 with the commercial herbicide (2,4-dichlorophenoxy)acetic acid (2,4-D), an auxin mimic. […] Plants were treated postemergence at the 3-leaf growth stage, and each treatment was replicated four times. […] Plants were watered as needed. […] Results are the means of the four replicates.

[7] = tested on: winter wheat (TRZAW); assay: Test 22 growth chamber, postemergence; format: in vivo, Triticum aestivum; settings: 25 DAA
Experimental: as §4, with “stage, except KCHSC, SASKR” for “stage,”, “STEME which were in the 4-8 leaf growth stage. Each” for “each”, “one time.” for “three times.”, “from single” for “means of the three”

[8] = 2,4-D or MCPA alone 250 g a.i./ha

With `O=C(O)CNCP(=O)(O)O` [Glyphosate] the “SETFA Obs” value [1] was 0%.
For `Nc1nc(C2CC2)nc(C(=O)O)c1Cl` [Compound 1, 6-amino-5-chloro-2-cyclopropyl-4-pyrimidinecarboxylic acid], the “CASOB Obs” value ([2]; 15 DAA) was 60, the “CASOB Obs” value ([2]; 29 DAA) was 70 and the “CASOB Obs” value ([2]; 48 DAA) was 90. The “CASOB Obs” value ([2]; 61 DAA) was 90.
With `CCc1cccc(C)c1N(C(=O)CCl)[C@@H](C)COC` [S-Metolachlor, S-metolachlor, reference compound] the “Obs growth % of control” value ([3]; 19 DAA, 1870 g a.i./ha) was 100%, the “Obs growth % of control” value ([3]; 28 DAA, 1870 g a.i./ha) was 53% and the “Obs growth % of control” value ([4]; 19 DAA, 1870 g a.i./ha) was 83%. For the same compound, the “Obs growth % of control” value ([4]; 28 DAA, 1870 g a.i./ha) was 88% and the “Obs growth % of control” value ([4]; 56 DAA, 1870 g a.i./ha) was 100%.
`COC(=O)c1nc(C2CC2)nc(N)c1Cl` [Compound 2, methyl 6-amino-5-chloro-2-cyclopropyl-4-pyrimidinecarboxylate] was tested, and the “CASOB Obs” value ([2]; 15 DAA) was 60, the “CASOB Obs” value ([2]; 29 DAA) was 80 and the “CASOB Obs” value ([2]; 48 DAA) was 60. For the same compound, the “CASOB Obs” value ([2]; 61 DAA) was 50, the “Postemergence STEME Obs” value ([5]; Cpd 2 alone 4 g a.i./ha) was 55 and the “Postemergence STEME Obs” value ([5]; Cpd 2 alone 8 g a.i./ha) was 58. The “Postemergence STEME Obs” value ([5]; Cpd 2 alone 16 g a.i./ha) was 67, the “Obs growth % of control” value ([3]; 19 DAA, 75 g a.i./ha) was 88% and the “Obs growth % of control” value ([3]; 19 DAA, 100 g a.i./ha) was 77%. For the same compound, the “Obs growth % of control” value ([3]; 28 DAA, 75 g a.i./ha) was 45%, the “Obs growth % of control” value ([3]; 28 DAA, 100 g a.i./ha) was 58% and the “Obs growth % of control” value ([3]; 56 DAA, 75 g a.i./ha) was 75%. The “Obs growth % of control” value ([3]; 56 DAA, 100 g a.i./ha) was 80%, the “TRZAW Obs” value ([6]; in vivo) was 43 and the “Postemergence TRZAW Obs” value ([7]; Cpd 2 alone 4 g a.i./ha) was 30. The “Postemergence TRZAW Obs” value ([7]; Cpd 2 alone 8 g a.i./ha) was 35, the “Postemergence TRZAW Obs” value ([7]; Cpd 2 alone 16 g a.i./ha) was 40 and the “SETFA Obs” value [1] was 40%. For the same compound, the “Obs growth % of control” value ([4]; 19 DAA, 75 g a.i./ha) was 65%, the “Obs growth % of control” value ([4]; 19 DAA, 100 g a.i./ha) was 73% and the “Obs growth % of control” value ([4]; 28 DAA, 75 g a.i./ha) was 100%. The “Obs growth % of control” value ([4]; 28 DAA, 100 g a.i./ha) was 23%, the “Obs growth % of control” value ([4]; 56 DAA, 75 g a.i./ha) was 20% and the “Obs growth % of control” value ([4]; 56 DAA, 100 g a.i./ha) was 18%.
For `O=C(O)COc1ccc(Cl)cc1Cl` [2,4-D, (2,4-dichlorophenoxy)acetic acid], the “Postemergence STEME Obs” value [5, 8] was 65, the “TRZAW Obs” value ([6]; Postemergence, 17 DAA, g a.i./ha: Cpd 2 16, 2,4-D 250) was 23 and the “TRZAW Obs” value ([6]; Postemergence, 17 DAA, g a.i./ha: Cpd 2 16, 2,4-D 500) was 23. For the same compound, the “TRZAW Obs” value ([6]; Postemergence, 17 DAA, g a.i./ha: Cpd 2 16, 2,4-D 1000) was 25 and the “Postemergence TRZAW Obs” value [7, 8] was 20.
